Test results published in patent US20030176314A1, “Compounds for the treatment of pain” (priority 2001, published 2003).

Tests used:
[1] = molecular target: T1, human α1D adrenergic receptor (Homo sapiens, UniProt P25100); experiment: Binding at human α1D adrenergic receptor; conditions: Table 8; read-out: hα1D Ki
T1 construct: host or cells: LM(tk-) cells, line L-α1A
T1 sequence (P25100 1-572): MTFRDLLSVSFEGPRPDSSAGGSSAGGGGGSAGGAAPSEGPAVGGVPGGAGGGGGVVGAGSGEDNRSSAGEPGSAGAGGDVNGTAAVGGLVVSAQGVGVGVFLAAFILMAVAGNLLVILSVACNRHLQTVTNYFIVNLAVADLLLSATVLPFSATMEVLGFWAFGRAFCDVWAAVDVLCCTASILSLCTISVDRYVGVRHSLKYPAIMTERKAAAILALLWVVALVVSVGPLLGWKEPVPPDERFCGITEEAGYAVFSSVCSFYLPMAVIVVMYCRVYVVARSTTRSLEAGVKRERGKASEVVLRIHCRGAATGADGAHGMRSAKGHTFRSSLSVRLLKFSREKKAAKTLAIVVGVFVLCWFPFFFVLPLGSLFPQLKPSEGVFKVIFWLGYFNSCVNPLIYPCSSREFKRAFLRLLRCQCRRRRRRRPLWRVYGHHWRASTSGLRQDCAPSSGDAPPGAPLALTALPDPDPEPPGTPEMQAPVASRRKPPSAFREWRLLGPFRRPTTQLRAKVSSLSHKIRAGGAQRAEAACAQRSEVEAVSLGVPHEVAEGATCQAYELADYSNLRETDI
Excerpt: α1 Human Adrenergic Receptors: To determine the binding of compounds to human α1 receptors, LM(tk−) cell lines stably transfected with the genes encoding the α1a, α1b, and α1d receptors were used. The nomenclature describing the α1 receptors was changed recently, such that the receptor formerly designated α1a is now designated α1d, and the receptor formerly designated α1c is now designated α1a. The cell lines expressing these receptors were deposited with the ATCC before the nomenclature change and reflect the subtype designations formerly assigned to these receptors. Thus, the cell line expressing the receptor described herein as the α1a receptor was deposited with the ATCC on Sep. […] The cell line expressing receptor described herein as the α1d receptor was deposited with the ATCC on Sep. […] The cell line expressing the α1b receptor is designated L-α1B, and was deposited on Sep.
(§1) The binding affinity (Ki) of these compounds were tested according to the protocols described herein at the following receptors; human α1A, α1B, α1D, α2A, α2B, and α2C adrenergic receptors; human Y1, Y2, Y4, and Y5 receptors; and N-Methyl-D-aspartic acid (NMDA) receptor channels. The binding interactions of these compounds were additionally tested at the norepinephrine (NE) transporter (NE uptake) and serotonin (5-hydroxytryptamine (5HT)) transporter (5HT uptake) according to protocols described herein

[2] = molecular target: T2, human α2B adrenergic receptor (Homo sapiens, UniProt P18089); experiment: Binding at human α2B adrenergic receptor; conditions: Table 8; read-out: hα2B Ki
T2 construct: host or cells: LM(tk-) cells, line L-NGC-α2B
T2 sequence (P18089 1-450): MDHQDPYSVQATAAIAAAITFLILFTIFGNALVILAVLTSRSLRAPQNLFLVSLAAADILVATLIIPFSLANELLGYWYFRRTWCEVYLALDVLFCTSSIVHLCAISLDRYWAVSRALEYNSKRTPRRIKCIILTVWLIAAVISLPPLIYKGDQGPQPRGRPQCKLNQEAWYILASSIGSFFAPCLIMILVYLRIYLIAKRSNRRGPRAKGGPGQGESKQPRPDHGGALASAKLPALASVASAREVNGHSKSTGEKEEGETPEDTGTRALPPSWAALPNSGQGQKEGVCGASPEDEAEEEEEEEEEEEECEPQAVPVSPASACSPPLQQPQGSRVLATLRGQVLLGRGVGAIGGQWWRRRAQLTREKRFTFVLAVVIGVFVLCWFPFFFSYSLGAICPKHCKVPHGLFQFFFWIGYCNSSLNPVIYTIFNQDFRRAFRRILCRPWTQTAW
Excerpt: (§2) α2 Human Adrenergic Receptors: To determine the binding of compounds to human α2 receptors, LM(tk−) cell lines stably transfected with the genes encoding the α2A, α2B, and α2C receptors were used. The cell line expressing the α2A receptor is designated L-α2A, and was deposited on Nov. 6, 1992, under ATCC Accession No. CRL 11180. The cell line expressing the α2B receptor is designated L-NGC-α2B, and was deposited on Oct. 25, 1989, under ATCC Accession No. CRL 10275. The cell line expressing the α2C receptor is designated L-α2C, and was deposited on Nov. 6, 1992, under ATCC Accession No. CRL-11181. Cell lysates were prepared as described herin, and suspended in 25 mM glycyiglycine buffer (pH 7.6 at room temperature). Equilibrium competition binding assay were performed using […] (0.5 nM), and nonspecific binding was determined by incubation with 10 μM phentolamine. The bound radioligand was separated by filtration through GF/B filters using a cell harvester.
as §1

[3] = molecular target: T3, human α2C adrenergic receptor (Homo sapiens, UniProt P18825); experiment: Binding at human α2C adrenergic receptor; conditions: Table 8; read-out: hα2C Ki
T3 construct: host or cells: LM(tk-) cells, line L-α2C
T3 sequence (P18825 1-462): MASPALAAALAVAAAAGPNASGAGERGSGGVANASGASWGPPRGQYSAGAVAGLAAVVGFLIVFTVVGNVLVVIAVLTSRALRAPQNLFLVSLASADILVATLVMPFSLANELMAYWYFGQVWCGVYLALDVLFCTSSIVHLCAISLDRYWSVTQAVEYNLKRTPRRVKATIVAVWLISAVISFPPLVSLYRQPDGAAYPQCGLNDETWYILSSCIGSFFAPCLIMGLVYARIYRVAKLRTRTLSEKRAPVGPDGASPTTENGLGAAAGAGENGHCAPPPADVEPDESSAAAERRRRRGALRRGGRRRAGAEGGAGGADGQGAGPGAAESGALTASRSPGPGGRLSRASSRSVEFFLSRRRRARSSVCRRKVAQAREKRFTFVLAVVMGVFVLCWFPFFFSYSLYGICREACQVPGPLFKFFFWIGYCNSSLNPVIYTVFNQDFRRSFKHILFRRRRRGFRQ
Excerpt: as §2, §1

Row | Ki [2] [µM] | Ki [3] [µM] | Structure (SMILES) | Ki [1] [µM]
1 | – | – | Cc1nc(NC(=N)N)nc2ccc3ccccc3c12 [Compound 1007A] | 8.58
2 | 3.75 | 0.765 | Cc1cc(NC(=N)N)nc2ccc(Cl)cc12 [Compound 4005A, N-(6-chloro-4-methyl-2-quinolinyl)guanidine] | –
